The term IC50 denotes the concentration at which inhibition is half-maximal. Higher therefore signals weaker potency in that assay.

1 compound from patent US20220411422A1, “ERBB RECEPTOR INHIBITORS” (Dizal (Jiangsu) Pharmaceutical Co., Ltd., priority 2018, published 2022) can be followed below.

This assay addresses T1, pHER2 (Homo sapiens, UniProt P04626).
T1 construct: pHER2 in cells expressing HER2; endogenous in cells; host or cells: BT474c1
Nature of the assay: pHER2 cellular activity in BT474c1 cell line. Type of assay: cell-based. As for the experimental part:
A compound's activity of selective inhibition for HER2 wild type amplification can be evaluated with BT474 cell line (ATCC® HTB-20™). The cell line expressed phosphorylated HER2 protein and its proliferation depended on the amplified gene, which could be used for in vitro PD and anti-proliferation assays.
The compounds' inhibition of target modulation were determined as follows: BT474 cells were sorted in 96 well plates (20000 cells/well) with the DMEM medium containing 10% FBS overnight and then treated with tested compounds at a series of concentrations (3 μM, 0.3 μM, 0.1 μM, 0.03 μM, 0.01 μM, 0.003 μM, 0.001 μM, 0.0001 μM). The plates were incubated for 4 h at 37° C. with 5% CO2 and then the HER2 (Y1248) phosphorylation level of cells in each well were measured with MSD Kit (Phospho-ErbB2 (Tyr1248) Assay Whole Cell Lysate Kit: Cat #K151CLD-3). The assay is a electrochemiluminescent method (MESO SCALE DISCOVERY) for determining both phosphorylated and total HER2 of cells with an MSD SECTOR® Imager and then the ratio of p-HER2/total HER2 can be generated by the machine. The percentage of inhibition was got from formula: % inhibition=100×[1−(ratio of sample well−ratio of Min ctrl well)/(ratio of Max−Ratio of Min ctrl well)]. The IC50 values were further calculated as the compounds concentration required for 50% inhibition in best-fit curves using Prism GraphPad 7.0 or Microsoft Xlfit software.

T1 sequence (P04626 23-1255): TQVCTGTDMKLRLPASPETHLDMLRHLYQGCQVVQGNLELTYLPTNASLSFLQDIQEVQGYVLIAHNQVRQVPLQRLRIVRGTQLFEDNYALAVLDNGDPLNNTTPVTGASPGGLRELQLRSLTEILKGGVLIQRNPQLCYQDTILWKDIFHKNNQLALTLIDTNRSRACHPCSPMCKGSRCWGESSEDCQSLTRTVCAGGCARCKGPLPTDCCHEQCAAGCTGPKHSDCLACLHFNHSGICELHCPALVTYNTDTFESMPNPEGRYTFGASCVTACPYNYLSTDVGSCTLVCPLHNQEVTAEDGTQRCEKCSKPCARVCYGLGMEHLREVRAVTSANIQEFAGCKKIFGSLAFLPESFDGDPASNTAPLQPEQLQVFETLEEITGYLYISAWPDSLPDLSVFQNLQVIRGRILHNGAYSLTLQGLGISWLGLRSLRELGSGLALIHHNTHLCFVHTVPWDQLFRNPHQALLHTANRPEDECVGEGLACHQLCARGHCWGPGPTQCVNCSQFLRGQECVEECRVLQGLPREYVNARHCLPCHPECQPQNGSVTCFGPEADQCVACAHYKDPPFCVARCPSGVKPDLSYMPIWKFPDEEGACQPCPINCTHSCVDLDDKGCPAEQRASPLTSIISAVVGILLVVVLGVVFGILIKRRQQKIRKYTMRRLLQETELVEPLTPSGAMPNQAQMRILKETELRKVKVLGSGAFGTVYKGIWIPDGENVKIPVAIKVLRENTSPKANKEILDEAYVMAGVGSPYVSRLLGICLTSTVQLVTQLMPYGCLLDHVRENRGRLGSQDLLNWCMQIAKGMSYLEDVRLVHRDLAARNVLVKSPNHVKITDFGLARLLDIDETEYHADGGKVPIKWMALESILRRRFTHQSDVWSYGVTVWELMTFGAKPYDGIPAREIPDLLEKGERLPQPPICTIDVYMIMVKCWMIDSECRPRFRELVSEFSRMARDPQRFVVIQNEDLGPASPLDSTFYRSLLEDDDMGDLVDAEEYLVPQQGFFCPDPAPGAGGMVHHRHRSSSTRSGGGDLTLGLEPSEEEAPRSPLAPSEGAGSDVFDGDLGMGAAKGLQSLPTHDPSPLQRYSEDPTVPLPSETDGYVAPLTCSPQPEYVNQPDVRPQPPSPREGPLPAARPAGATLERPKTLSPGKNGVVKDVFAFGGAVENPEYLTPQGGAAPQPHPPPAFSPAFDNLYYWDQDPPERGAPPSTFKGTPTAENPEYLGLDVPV

As for `COc1cc(O[C@H]2CCN(C)CC2(F)F)c2c(Nc3ccc(Oc4ccn5ncnc5c4)c(C)c3)ncnc2c1` (single isomer, unassigned) [Compound 6], the “selectivity between pHER2 in cells expressing HER2 and pEGFR in cells expressing wild type EGFR” value is on record as “over 300 fold”. Half-maximal inhibition (BT474c1 cell line) (IC50) required 4.4 nM.
